Reference: patent US4020111A, “Propynyloxy alkyl arene insecticides” (priority 1975, dated 1977)

Key:
[1] = tested on: Wilson strain house flies; assay type: in vivo, house fly (susceptible Wilson strain); conditions: for Contact Synergistic Ratio, Carbaryl (LC50 insecticide alone / LC50 with synergist): in vivo; for Contact Synergistic Ratio, Pyrolan (LC50 insecticide alone / LC50 with synergist): synergist to insecticide 5:1 by weight, 24 h
Summary of the method: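 Flies held at room temperature in glass jars coated with acetone-deposited insecticide film, alone or with synergist at 5:1 synergist:insecticide by weight; 10% sugar supplied.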

mice [2] = assay: extension of Noludar sleeping time by synergists; assay type: in vivo, Swiss albino white male mice; conditions: Noludar 110 mg/K, synergist 110 mg/K; for Relative Sleeping Time: treated/control
Summary of the method: (§1)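 Swiss albino male mice (~38 days, 25-30 g) given synergist at 74.0 or 110.0 mg/kg in corn oil 1 h before Secobarbital 37.0 mg/kg or Noludar 110.0 mg/kg in water. Sleeping time measured from drug dosing to righting-reflex recovery; relative sleeping time = treated ÷ drug-only control.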

[3] = tested on: Rutgers A strain house flies; assay: topical application test, percent kill after 24 hours, Rutgers A strain; assay type: in vivo, house fly (resistant Rutgers A strain)
Protocol: In Table IX, and in the tables following it, the doses of topically applied insecticides and of synergists unless otherwise noted are expressed as micrograms per fly (μg/fly).
The synergistic effect of O-(2-propynyl) oximes with mobam was determined from topical application tests on susceptible, female, IN/WHO strain house flies and from tests on resistant, female, Rutgers A strain house flies. The synergist and insecticide were dissolved in ACS Grade acetone in such quantities that a 1.0μ liter volume applied to the thorax of 3-to-5 day old CO2 -anesthetized female adult house flies contained the desired dosage. After being treated, the flies were confined, 10 to a plaster petri dish, with 3-5 dishes/treatment, and held for 24-hr. observation of mortality. Reconstituted skim milk on cotton dental wicks was provided during the holding period. The percent kills after 24 hours are shown in Table X for the IN/WHO strain and Table XI for the Rutgers A strain.
The synergistic effect of benzyl 2-propynyl ethers with mobam was determined from topical application tests on IN/WHO and Rutgers A strain houseflies, following the procedure of Example 5. The percent kills after 24 hours are shown in Table XIV for the IN/WHO strain and in Table XV for the Rutgers A strain.
The synergistic effect with Diazinon of compounds I-B, I-D, I-F, I-G, I-H and I-I, identified in Tables I and Ia, was determined from topical application tests on IN/WHO strain houseflies and on Rutgers A strain houseflies by the procedure of Example 5. The percent kills after 24 hours are shown in Table XXV for the IN/WHO strain and Table XXVI for the Rutgers A strain.
The synergistic effect with GS 13005 of compounds I-A, I-B, I-D, I-E, I-F, I-G and I-I was determined from topical application tests to IN/WHO strain, Rutgers A strain and polyvalent CH strain houseflies using the procedures of Example 5. The percent kills of the IN/WHO strain flies after 24 hours are shown in Table XXVIII; of the Rutgers A strain, in Table XXIX; and of the polyvalent CH strain, in Table XXX. The doses of insecticide alone to the CH strain files caused 10-40% mortality.
The synergistic effect with Diazinon and GS 13005 of various of the benzyl 2-propynyl ethers identified in Tables II and IIa was determined by topical application tests on IN/WHO strain, and Rutgers A strain and polyvalent, resistant, CH strain houseflies using the procedures of Example 5. The percent kills after 24 hours of IN/WHO strain flies are shown in Table XXXI; of Rutgers A strain flies, in Table XXXII; and of CH strain flies, in Table XXXIII. The doses of insecticide alone to the CH strain flies caused 10-40% mortality.
The synergistic effect on IN/WHO strain flies and Rutgers A strain flies of compound IV-C with GS 13005 and with Diazinon was determined by the topical application procedure of Example 5. The percent kills of IN/WHO strain flies after 24 hours are shown in Tables XXXVI and XXXVII; the percent kills of Rutgers A strain flies are shown in Tables XXXVIII and XXXIX.

CH strain flies = assay: spray application of pyrethrum, average percent knockdown with time; assay type: in vivo, housefly (CH strain); conditions: pyrethrum 100 + synergist 100 mg/cc
Protocol: The average percent knockdown of CH strain flies, as a function of time, resulting from spray application of pyrethrum, alone and with synergists, are given in Table XXXXIII. Duplicate tests were performed using 50 CH strain houseflies per test. Test solutions of 100 mg and 200mg of pyrethrum per cc of acetone, 200 mg of synergist per cc of acetone, and a mixture of 100 mg of pyrethrum and 100 mg of synergist per cc of acetone were prepared. The fifty CH strain houseflies were put in a 40 liter spray chamber and 1 cc of the test solution was sprayed into the test chamber with a spray pistol. The synergists alone at 200 mg/cc caused no knockdown.

mice [4] = assay: extension of Secobarbital sleeping time by synergists; assay type: in vivo, Swiss albino white male mice; conditions: Secobarbital 37 mg/K; for Relative Sleeping Time: treated/control
Summary of the method: as §1

[5] = Mobam 0.15 + synergist 0.75 μg/fly
[6] = Mobam 0.30 + synergist 1.5 μg/fly

SMILES	Contact Synergistic Ratio, Carbaryl (LC50 insecticide alone / LC50 with synergist) [1]	Contact Synergistic Ratio, Pyrolan (LC50 insecticide alone / LC50 with synergist) [1]	Mean Sleeping Time (mice [2]) [min]	Relative Sleeping Time (mice [2])	average percent knockdown (CH strain flies; 5 min) [%]	average percent knockdown (CH strain flies; 10 min) [%]	average percent knockdown (CH strain flies; 15 min) [%]	average percent knockdown (CH strain flies; 20 min) [%]	average percent knockdown (CH strain flies; 25 min) [%]	average percent knockdown (CH strain flies; 30 min) [%]	average percent knockdown (CH strain flies; 40 min) [%]	average percent knockdown (CH strain flies; 50 min) [%]	average percent knockdown (CH strain flies; 60 min) [%]	Mean Sleeping Time (mice [4]; synergist 74 mg/K) [min]	Relative Sleeping Time (mice [4]; synergist 74 mg/K)	Mean Sleeping Time (mice [4]; synergist 110 mg/K) [min]	Relative Sleeping Time (mice [4]; synergist 110 mg/K)	other results
C#CCON=C(C)c1ccc(Cl)cc1 [I-D]	177	25	58	1.5	6	15	26	39	52	60	86	87	88	62	1.9	56	1.7	percent kill after 24 hours [3, 5]: 19%; percent kill after 24 hours ([3]; Mobam 0.60 + synergist 3.0 μg/fly): 100%
C#CCON=C(C)c1ccc2ccccc2c1 [I-F]	200	50	55	1.4	–	–	–	–	–	–	–	–	–	32	1.1	70	2.2	percent kill after 24 hours ([3]; Diazinon 3.0 + synergist 3.0 μg/fly): 95%; percent kill after 24 hours ([3]; GS 13005 1.0 + synergist 5.0 μg/fly): 95%; percent kill after 24 hours [3, 6]: 38%
C#CCON=Cc1ccc(Cl)cc1Cl [I-G]	–	–	48	1.2	7	12	31	36	59	66	89	93	94	27	1.0	55	1.7	percent kill after 24 hours ([3]; Diazinon 3.0 + synergist 15 μg/fly): 100%
C#CCOCc1ccc(Cl)c(Cl)c1 [II-C]	100	15	50	1.3	–	–	–	–	–	–	–	–	–	–	–	33	1.0	percent kill after 24 hours [3, 6]: 20%
C#CCOCc1ccc(Cl)c(Cl)c1Cl [II-D]	200	30	46	1.0	–	–	–	–	–	–	–	–	–	–	–	60	1.2	–
C#CCOCc1c(Cl)ccc(Cl)c1Cl [II-E]	120	20	45	1.1	5	9	17	44	55	59	77	93	95	–	–	44	1.4	percent kill after 24 hours [3, 5]: 17%; percent kill after 24 hours ([3]; synergist alone 7.5 μg/fly): 0%
C#CCOCc1c(Cl)cccc1[N+](=O)[O-] [II-K]	–	–	75	2.4	–	–	–	–	–	–	–	–	–	48	1.5	44	2	–
